Like-named read-outs stand apart in the source and are kept apart here.
Legend:
[1] = system: Hemophilia B knockout mice; experiment: Western blot for antibody to murine F.IX in hemophilic mice injected with AAV-mF.IX; format: in vivo, mouse; details: up to five months of observation
Procedure: (§1) Hemophilia B knockout mice were injected intramuscularly with AAV mF.IX (1×10^11) at day 0, without or with immunomodulation therapy. The mice were bled at monthly time points in citrate. The assays which were performed included a clotting based-apTT (measure of correction of hemostatic defect) assay and Bethesda titer (1 BU defined as 50% residual FIX in a 2 hour 50:50 mix). In addition, antibody assays, Western blot analysis and ELISA assays were performed. The immunomodulatory strategies used to address formation of antibodies to the transgene product were as follows: […]

[2] = system: Hemophilia B knockout mice; format: in vivo, mouse; details: for Bethesda titer of AAV-F.IX treated mice: values of individual mice; for correction of the aPTT (in words): hemophilia B mice injected with AAV-mF.IX, with or without immunomodulation
Procedure: A cohort of six mice were injected intramuscularly with an adeno-associated virus (AAV) vector encoding the murine F.IX transgene (total dose 1×10^11 vector genomes/mouse). Mice were bled at monthly intervals via tail vein transection, and clotting times of plasma were measured by aPTT assay. […] Two other cohorts of mice received immunomodulation around the time of vector administration in an effort to suppress inhibitor formation. One cohort (n=4) received anti-CD40L antibody at a total dose of 0.4 mg per mouse given in four divided doses (0.1 mg at days -3, 0, 3, 6) while the other cohort received cyclophosphamide (CYP, n=4) at doses of 50 mg/kg per mouse biweekly at four time points.
as §1

O=P1(N(CCCl)CCCl)NCCCO1 (centres unmarked) [CYP, cyclophosphamide]
antibody to murine F.IX on Western blot (in words) [1]: did not develop antibodies | Bethesda titer of AAV-F.IX treated mice ([2]; 1 month after vector): 0/0/0 | Bethesda titer of AAV-F.IX treated mice ([2]; 2 months after vector): 0/0/0 | period over which aPTT correction was maintained ([2]; after vector injection): greater than ten months | aPTT ([2]; all mice at one month after vector, normal 22-39 s): 28.9 to 30.9 s | animals with no evidence of inhibitor antibody formation ([2]; four doses at two week intervals, at least five months after vector): 3/3 | correction of the aPTT (in words) [2]: nearly complete correction | correction of the aPTT (in words) ([2]; listed as cyclophosphamide): sustained correction of the aPTT

Source: patent US8063022B1, “Methods for preventing formation of inhibitory antibodies in the setting of gene therapy” (priority 1999, dated 2011)
